From PubChem BioAssay AID588756 (Broad Institute, 2011)
The source made the active and inactive calls.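 The calls were made as follows: active = a falling-signal curve whose fitted AC50 is at most ten times the top valid dose; inconclusive = flat fit with 30 to 70% inhibition, or a poor fit; inactive = the rest.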

Target: Aurora kinase B (Homo sapiens) (UniProt Q96GD4)
Test: AURKB enzyme activity inhibitors – biochemical, scintillation, dry powder, set 2, counter-screen for STK33 inhibitor project, dose response (AID 588756)
Conditions: gamma-32P-ATP (ATP at Km), P30 filter scintillation

Aurora kinase B (Homo sapiens), sequence (Q96GD4 whole entry, looked up): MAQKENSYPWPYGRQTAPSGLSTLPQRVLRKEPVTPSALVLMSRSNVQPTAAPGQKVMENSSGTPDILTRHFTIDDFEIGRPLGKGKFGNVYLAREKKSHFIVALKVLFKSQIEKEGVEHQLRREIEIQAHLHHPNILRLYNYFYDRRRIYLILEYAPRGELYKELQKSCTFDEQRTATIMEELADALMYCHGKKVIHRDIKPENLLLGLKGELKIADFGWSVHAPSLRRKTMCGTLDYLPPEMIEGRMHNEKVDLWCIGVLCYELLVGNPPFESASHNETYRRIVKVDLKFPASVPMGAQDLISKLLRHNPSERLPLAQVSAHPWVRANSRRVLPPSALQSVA

| AC50 | activity change, negative = inhibition (at 10 µM (top of the series)) | SMILES |
| --- | --- | --- |
| > 20 µM (inactive) |  | COc1cc(/C=C2\SC(N)=NC2=O)ccc1O |
| 2.92 µM |  | COc1cc(/C=C2\SC(=NCc3ccccc3)NC2=O)ccc1O |
| > 20 µM (inactive) |  | COc1cc(/C=C2\SC(=Nc3ccccc3F)NC2=O)ccc1O |
| 10.1 µM |  | COc1cc(/C=C2\SC(=Nc3ccccc3Cl)NC2=O)ccc1O |
|  | inactive | COc1cc(/C=C2\S/C(=N/c3ccccn3)NC2=O)ccc1O |
